Columns and labels:
Assay type in all cases: cell-based
[1] = tested on: PNT1-A; assay: WST-1 cytotoxicity assay, PNT1-A; conditions: Homo sapiens, PNT1A
Description: (§1) We used cancer and normal cell lines purchased from ATCC (American Type Culture Collection) and ECACC (European Collection of Authenticated Cell Cultures) and stored in liquid nitrogen. HT-29 (ATCC: HTB-38, colon adenoma cancer), HeLa (ATCC: CCL-2, cervix adenoma cancer cell), MDA-MB-231 (ATCC: HTB-26, breast adenoma cancer cell), and HEK-293 (ATCC: CRL-1573, embryonic kidney epithelial cell) cell lines were incubated in DMEM-F12 (Sigma-Aldrich, Germany), including 10% Fetal Bovine Serum (FBS), 100 μg/mL streptomycin/100 IU/mL penicillin, at 37 °C in an incubator containing 5% CO2, 95% air in a humid atmosphere. PNT-1A (ECACC: 95012614, normal prostate cells) cell line was incubated in RPMI-1640 medium, including %10 FBS, 100 μg/mL streptomycin/100 IU/mL penicillin, at 37 °C in an incubator containing 5% CO2, 95% air in a humid atmosphere.
(§2) The cytotoxic effects of compound E were evaluated with WST kit (Roche, Basel, Switzerland) in accordance with manufacturer protocols. The cells were planted in 96 well plates (10^4 cells per well). After 24 h of incubation, compound E at doses of 0, 2.5, 5, 10, 25, 50, 100, and 200 μM was administrated on the cell lines for 24, 48, and 72 h, and 5-FU on the control cell line with the same doses. WST-1 reactive of 10 µL was added in all wells. Following 4 h incubation, the measurements were carried out in a plate reader (Spectramax M5, BioTek, VT, USA) at wavelengths of 450 and 630 nm. Consequently, graphs were created, and the IC50 values of compound E and 5-fluorouracil were calculated. Selectivity index (SI) can be defined as the ratio of the toxic concentration of a sample against its effective compound concentration.

[2] = tested on: MDA-MB-231; assay: WST-1 cytotoxicity assay, MDA-MB-231; conditions: Homo sapiens
Description: (§3) We used cancer and normal cell lines purchased from ATCC (American Type Culture Collection) and ECACC (European Collection of Authenticated Cell Cultures) and stored in liquid nitrogen.
(§4) The cells were planted in 96 well plates (10^4 cells per well). […] WST-1 reactive of 10 µL was added in all wells. Following 4 h incubation, the measurements were carried out in a plate reader (Spectramax M5, BioTek, VT, USA) at wavelengths of 450 and 630 nm.

[3] = tested on: HEK-293; assay: WST-1 cytotoxicity assay, HEK-293; conditions: Homo sapiens
Description: as §1, §2

[4] = tested on: HT-29; assay: WST-1 cytotoxicity assay, HT-29; conditions: Homo sapiens
Description: as §3, §4

[5] = tested on: HeLa cells; assay: WST-1 cytotoxicity assay, HeLa; conditions: Homo sapiens
Description: as §3, §4

`O=c1[nH]cc(F)c(=O)[nH]1` [5-FU, 5-Fluorouracil, reference compound] gave an IC50 ([1]; 24 h) of 23.1 ± 4.55 µM, an IC50 ([1]; 48 h) of 21.2 ± 2.2 µM and an IC50 ([1]; 72 h) of 17.5 ± 7.6 µM. For the same compound, the IC50 ([2]; MDA-MB-231, 24 h) was 42.6 ± 2.56 µM, the IC50 ([2]; MDA-MB-231, 48 h) was 37.9 ± 12.3 µM and the IC50 ([2]; MDA-MB-231, 72 h) was 21 ± 4.3 µM. The IC50 ([3]; HEK293, HEK-293, 24 h) was 44.6 ± 7.2 µM, the IC50 ([3]; HEK293, HEK-293, 48 h) was 19.8 ± 2.3 µM and the IC50 ([3]; HEK293, HEK-293, 72 h) was 14.5 ± 3.2 µM. It also gave an IC50 ([4]; HT-29, 24 h) of 47.3 ± 1.2 µM, an IC50 ([4]; HT-29, 48 h) of 23.4 ± 2.1 µM and an IC50 ([4]; HT-29, 72 h) of 19.3 ± 1.2 µM. For the same compound, the IC50 ([5]; 24 h) was 37.8 ± 4.3 µM, the IC50 ([5]; 48 h) was 31.2 ± 2.3 µM and the IC50 ([5]; 72 h) was 14.7 ± 0.6 µM.
